Structures are written as SMILES.

In patent US11857560B2, “Pharmaceutical compositions comprising substituted nucleotides and nucleosides for treating viral infections” (priority 2013, dated 2024) one finds CC50 and EC50 data, which are given here for 1 compound.

Series [1] has as its system Huh-7. The series can be described thus: Cytotoxicity panel, Huh-7. Conditions: read-out: Cytotoxicity (CC50 uM) Huh-7; Huh-7.
In series [2] the test system is HSV-1. The series can be described thus: HSV-1 replication assay. Format: cell-based. The settings on record: Human alphaherpesvirus 1.
Series [3] can be described thus: Cytotoxicity in MRC-5 cells (VZV assay). It is filed as cell-based. Conditions: human, beside VZV.
A short description of series [4]: Cytotoxicity in Huh-7 cells (HSV-1 assay). It is filed as cell-based. The settings on record: human, beside HSV-1.
Series [5] in a line: Toxicity in Huh-7 cells (Dengue assay). The settings on record: human, Huh-7 cells.
Series [6] deals with HCMV. The series can be described thus: HCMV replication assay. Format: cell-based. The settings on record: Human betaherpesvirus 5.
Series [7] in a line: Cytotoxicity in HepG2 cells (HBV assay). It is filed as cell-based. The settings on record: human, HepG2.2.15 cells; beside HBV. The method, then:
The 50% cytotoxic concentration for the test materials are derived by measuring the reduction of the tetrazolium dye XTT in the treated tissue culture plates. XTT is metabolized by the mitochondrial enzyme […] to a soluble formazan product in metabolically active cells. […] The 2-4 hour incubation has been empirically determined to be within linear response range for XTT dye reduction with the indicated numbers of cells for each assay. […] Data were collected by Softmax 4.6 software and imported into an Excel spreadsheet for analysis.

Series [8] can be described thus: Cytotoxicity in MRC-5 cells (HCMV assay). It is filed as cell-based. The settings on record: human, beside HCMV.
Series [9] can be described thus: Cytotoxicity in PBM cells (HIV assay). It is filed as cell-based. The settings on record: human, peripheral blood mononuclear cells (PBMCs), PHA-P stimulated; beside HIV.
The subject of series [10] is HIV. The series can be described thus: HIV infected PBMC assay. Format: cell-based, HIV-1. Conditions: Human immunodeficiency virus 1, PBMC. Here is the method:
Fresh human peripheral blood mononuclear cells (PBMCs) were obtained from a commercial source (Biological Specialty) and were determined to be seronegative for HIV and HBV. Depending on the volume of donor blood received, the leukophoresed blood cells were washed several times with PBS. After washing, the leukophoresed blood was diluted 1:1 with Dulbecco's phosphate buffered saline (PBS) and layered over 15 mL of Ficoll-Hypaque density gradient in a 50 ml conical centrifuge tube. These tubes were centrifuged for 30 min at 600 g. Banded PBMCs were gently aspirated from the resulting interface and washed three times with PBS. […] After incubation, PBMCs were centrifuged and resuspended in tissue culture medium. The cultures were maintained until use by half-volume culture changes with fresh IL-2 containing tissue culture medium every 3 days. […]
Following addition of test compound to the wells, 50 uL of a predetermined dilution of HIV virus (prepared from 4× of final desired in-well concentration) was added, and mixed well. […] After 7 days in culture, HIV-1 replication was quantified in the tissue culture supernatant by measurement of reverse transcriptase (RT) activity. […]
Reverse Transcriptase Activity Assay—Reverse transcriptase activity was measured in cell-free supernatants using a standard radioactive incorporation polymerization assay. […]

The test system of series [11] is HBV. The series can be described thus: HBV replication assay. It is filed as cell-based. Conditions: Hepatitis B virus. Here is the method:
Ten microliters of cell culture supernatant collected on the sixth day was diluted in qPCR dilution buffer (40 μg/mL sheared salmon sperm DNA) and boiled for 15 minutes. Quantitative real time PCR was performed in […] using an Applied Biosystems 7900HT Sequence Detection System and the supporting SDS 2.4 software. Five microliters (5 μL) of boiled DNA for each sample and serial 10-fold dilutions of a quantitative DNA standard were subjected to real time Q-PCR using Platinum Quantitative PCR SuperMix-UDG (Invitrogen) and specific DNA oligonucleotide primers (IDT, Coralville, […]) HBV-AD38-qFI (5′-[…] -3′) (SEQ ID NO: 1), HBV-AD38-qR1 (5′-AGT CCA AGA GTY CTC TTA TRY AAG ACC TT-3′) (SEQ ID NO: 2), and HBV-AD38-qPI (5′-FAM CCG TGT GCA/ZEN/[…] -3′BHQ1) (SEQ ID NO: 3) at a final concentration of 0.2 μM for each primer in a total reaction volume of 15 μL. The HBV DNA copy number in each sample was interpolated from the standard curve by the SDS.24 software and the data were imported into an Excel spreadsheet for analysis.

In series [12] the test system is VZV. The series can be described thus: VZV replication assay. Format: cell-based. Conditions: Human alphaherpesvirus 3.
The subject of series [13] is Adenovirus. The series can be described thus: Adenovirus replication assay. Format: cell-based. Conditions: unidentified adenovirus.

For `CC(C)OC(=O)[C@H](C)NP(=O)(OC[C@H]1O[C@@H](n2ccc(=O)[nH]c2=S)[C@](C)(O)C1O)Oc1ccccc1` (stereo partly shown) [ENUC-01911], the 50% cytotoxic concentration (CC50) in [1] is over 400 µM; in [3] it was over 100 µM; in [4] it was over 100 µM; in series [5], over 100 µM; in series [8], over 100 µM. Moreover, the EC50 in series [2], in series [6], in series [10], in [11], in series [12] and in [13] was over 100 µM each time. Also, in series [7], the CC50 at 6 days is over 100 µM. The same compound yielded a CC50 at 7 days in series [9] of over 100 µM.

Broadly, the CC50 is the concentration giving 50% cytotoxicity. As usually defined, the EC50 is the concentration giving half of the maximal effect.
